Results: a compilation of properties of binary mixtures (doi:10.1016/j.jtice.2014.04.012)

Assay: xn = mol fraction of the nth substance listed
Settings: 100 kPa

CN(C)C=O + CCCC[n+]1ccn(C)c1.F[B-](F)(F)F
x2 = 0
Settings | viscosity [mPa·s]
303.15 K | 0.77
313.15 K | 0.688
323.15 K | 0.619

CCCC[n+]1ccn(C)c1.F[B-](F)(F)F + CN(C)C=O
viscosity [mPa·s]
Settings | x1 = 0.1008 | x1 = 0.2015 | x1 = 0.3022 | x1 = 0.4024 | x1 = 0.502 | x1 = 0.6024 | x1 = 0.7019 | x1 = 0.8015 | x1 = 0.9002 | x1 = 1
303.15 K | – | 2.598 | 4.414 | 7.178 | 11.55 | 17.99 | 26.92 | 39.91 | 58.87 | 85.4
313.15 K | 1.298 | 2.198 | 3.585 | 5.632 | 8.76 | 13.13 | 19.05 | – | 38.08 | –
323.15 K | 1.142 | 1.892 | – | 4.587 | 6.849 | 10 | – | 19.37 | 26.77 | 36.27
333.15 K | 1.012 | 1.631 | 2.53 | 3.873 | 5.565 | 7.857 | – | 14.43 | 19.11 | 25.46
